Measurements: patent US6221914A, “Sulfonamide bridging compounds that inhibit tryptase activity” (Array Biopharma Inc., priority 1998, dated 2001)

How the values were obtained:
Type in all cases: biochemical
Human lung tryptase = assay: Ki determination, human lung tryptase (Tosyl-Gly-Pro-Arg-pNA substrate); details: 50 mM Tris-HCl pH 8.0, 37° C., 1 nM tryptase, 320 μM GPR-pNA; read-out: Experimentally Determined Ki, Tryptase
Procedure: (§1) Protease inhibition was assayed according to published procedures with minor modifications using various proteases and specific chromogenic peptide p-nitroanilide substrates. Assays were performed in Costar ultra-low cluster 96-well microtiter plate (Costar Corning Corp., Cambridge Mass.). Each protease was incubated with various concentrations of the test compound for 15 min. at 37° C. or as otherwise indicated, in specific assay buffer, and the residual activity was then measured by addition of the substrate. p-Nitroaniline produced by the proteolysis was determined by measuring the change in absorbance at 405 nm on a SpectraMAX 340 plate reader (Molecular devices, Sunnyvale, Calif.).
(§2) 1. The inhibition constant, Ki is calculated from individual data points using the equation for a tight-binding inhibitor (See Beith, "Proteinase Inhibitors-Proceedings of 2nd Int. Res. Conference", Fritz, et al. eds, New York, p.4463-4469 (1974)):
(§3) vi /vo [((Ki '+[I]+[E]o)^2 -4 [I]o
(§4) [E]o)^1/2 (Ki '+[I]o -[E]o)]/2[E]o
(§5) where Ki ' is apparent inhibition constant; vi and vo are the inhibited and uninhibited rates, respectively; [I]o and [E]o are the total concentrations of inhibitor and enzyme, respectively.
(§6) [note: [E]o is determined by active site titration of enzyme]
(§7) The Ki values are obtained by correcting Ki ' values for the effect of substrate concentration according to: [formula]
(§8) 2. Other inhibition data (Ki >>[E]o), the Ki is calculated from using the equations for a competitive inhibitor: [formula]
Human lung tryptase purchased from Cortex Biochem (San Leandro, Calif.) was purified further on a Superdex 200 gel-filtration column. The active-site concentration of the enzyme was determined by spectrophotometric titration with 4-nitrophenyl 4'-guanidinobenzoate according to Schwartz, et al., J. Immunol., 114, 2304-2311 (1990). Tryptase activity was measured according to the procedures of Schwartz, et al., J. Biol. Chem., 261, 7372-7379 (1986) (See also, Schwartz, L. B., Methods In Enzymology, 244, 88 (1994)) with minor modifications, using Tosyl-Gly-Pro-Arg-p-nitroanilide ("GPR-pNA", Sigma Chemical Co., St. Louis, Mo., T-1637) as a chromogenic substrate. The reaction was performed in 50 mM Tris-HCl, pH 8.0, containing 150 mM NaCl and 0.02% Triton X-100 at 37° C. in Costar ultra-low cluster 96-well microtiter plates (Costar Corning Corp., Cambridge, Mass.). The amount of pNA produced by tryptase was determined by measuring the change in absorbance at 405 nm on a SpectraMAX 340 plate reader (Molecular devices, Sunnyvale, Calif.). The Km for the substrate was determined by Lineweaver-Burk analysis from initial velocities of substrate hydrolysis. The inhibition assay was carried out in a total volume of 200 μL. Tryptase (30 μL- final concentration 1 nM) was incubated with various concentrations of sample compound (50 μL) to be tested in the above assay buffer for 5 min. The reaction was started by the addition of substrate GPR-pNA (40 μL-final concentration 320 μM), and the residual activity was measured after 15 min. of incubation. The inhibition constant, Ki, was determined by fitting the inhibition data to a two-site competitive binding equation using data analysis program GraphPad PRISM (GraphPad Software, Inc., San Diego, Calif.).
(§9) The inhibition constant (Ki) of the test compounds against each proteolytic enzyme was determined according to Zitnik et al., Biochem. Biophys. Res. Commun. 232, 687-697 (1997)).

Human plasma thrombin = molecular target: T1, Human plasma thrombin (Homo sapiens, UniProt P00734); assay: Ki determination, human plasma thrombin (H-D-Phe-Pip-Arg-pNA); details: 50 mM Tris-HCl, pH 8.3, 100 mM NaCl, 1% BSA; read-out: Experimentally Determined Ki, Thrombin
T1 construct: from tissue; host or cells: human plasma
Procedure: as §1, §2, §3, §4, §5, §6, §7, §8
Human plasma thrombin activity was determined by using H-D-Phe-Pip-Arg-pNA in 50 mM Tris-HCl, pH 8.3, 100 mM NaCl, 1% BSA (See Lottenberg, et al. Meth. Enzymol. 80, 341-361 (1981)).
as §9

Human plasma factor Xa = molecular target: T2, Human plasma factor Xa (Homo sapiens, UniProt P00742); assay: Ki determination, human plasma factor Xa (N-Benzoyl-Ile-Glu-Gly-Arg-pNA); details: 50 mM Tris-HCl, pH 7.8, 200 mM NaCl, 0.05% BSA; read-out: Experimentally Determined Ki, Factor Xa
T2 construct: from tissue; host or cells: human plasma
Procedure: as §1, §2, §3, §4, §5, §6, §7, §8
Human plasma factor Xa activity was determined by using N-Benzoyl-Ile-Glu-Gly-Arg-pNA in 50 mM Tris-HCl, pH 7.8, 200 mM NaCl, 0.05% BSA (See Lottenberg, et al. Meth. Enzymol. 80, 341-361 (1981)).
as §9

Human plasma plasmin = molecular target: T3, Human plasma plasmin (Homo sapiens, UniProt P00747); assay: Ki determination, human plasma plasmin (Tosyl-Gly-Pro-Lys-pNA); details: 100 mM Tris-HCl, pH 7.4, 100 mM NaCl, 0.05% Triton X-100; read-out: Experimentally Determined Ki, Plasmin
T3 construct: from tissue; host or cells: human plasma
Procedure: as §1, §2, §3, §4, §5, §6, §7, §8
Human plasma plasmin activity was determined by using Tosyl-Gly-Pro-Lys-pNAin 100 mM Tris-HCl, pH 7.4, 100 mM NaCl, 0.05% Triton X-100 (See Lottenberg, et al., Meth. Enzymol. 80, 341-361 (1981)).
as §9

[1] = molecular target: T4, Human Neutrophil elastase (Homo sapiens, UniProt P08246); assay: Ki determination, human neutrophil elastase (pyroGlu-Pro-Val-pNA); details: 100 mM Tris-HCl, pH 8.3, 0.96 M NaCl, 1% BSA; read-out: Experimentally Determined Ki, Elastase
T4 construct: from tissue; host or cells: human neutrophils
T4 sequence (P08246 30-267): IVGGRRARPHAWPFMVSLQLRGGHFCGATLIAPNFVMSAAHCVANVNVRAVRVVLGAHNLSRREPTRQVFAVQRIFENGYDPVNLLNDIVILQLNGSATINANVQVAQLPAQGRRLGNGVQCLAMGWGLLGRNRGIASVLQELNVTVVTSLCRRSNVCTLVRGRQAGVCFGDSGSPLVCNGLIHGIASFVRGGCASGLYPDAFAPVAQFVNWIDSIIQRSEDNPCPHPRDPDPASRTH
Procedure: as §1, §2, §3, §4, §5, §6, §7, §8
Human Neutrophil elastase activity was determined by using pyroGlu-Pro-Val-pNA in 100 mM Tris-HCl, pH 8.3, 0.96 M NaCl, 1% BSA (See Kramps, et al. Scand. J. Clin. Lab. Invest. 43, 427-432 (1983)).
as §9

[2] = molecular target: T5, Human Neutrophil Cathepsin G (Homo sapiens, UniProt P08311); assay: Ki determination, human neutrophil cathepsin G (N-Suc-Ala-Ala-Pro-Phe-pNA); details: 625 mM Tris-HCl, pH 7.5, 2.5 mM MgCl2, 0.125% Brij 35; read-out: Experimentally Determined Ki, Cathepsin G
T5 construct: from tissue; host or cells: human neutrophils
T5 sequence (P08311 21-255): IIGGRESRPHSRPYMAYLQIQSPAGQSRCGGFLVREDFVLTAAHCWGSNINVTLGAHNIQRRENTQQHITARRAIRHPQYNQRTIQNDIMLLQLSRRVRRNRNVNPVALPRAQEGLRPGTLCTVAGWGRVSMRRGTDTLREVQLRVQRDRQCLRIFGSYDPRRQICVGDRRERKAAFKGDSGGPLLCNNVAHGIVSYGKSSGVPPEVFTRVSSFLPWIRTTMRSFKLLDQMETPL
Procedure: as §1, §2, §3, §4, §5, §6, §7, §8
Human Neutrophil Cathepsin G activity was determined by using N-Suc-Ala-Ala-Pro-Phe-pNA in 625 mM Tris-HCl, pH 7.5, 2.5 mM MgCl2, 0.125% Brij 35 (See Groutas et al., Arch. Biochem. Biophys. 294, 144-146 (1992)).
as §9

[3] = molecular target: T6, Bovine pancreatic Trypsin (Bos taurus, UniProt P00760); assay: Ki determination, bovine pancreatic trypsin (N-a-Benzoyl-L-Arg-pNA); details: 50 mM Tris-HCl, pH 8.2, 20 mM CaCl2; read-out: Experimentally Determined Ki, Trypsin
T6 construct: from tissue; host or cells: bovine pancreas
T6 sequence (P00760 24-246): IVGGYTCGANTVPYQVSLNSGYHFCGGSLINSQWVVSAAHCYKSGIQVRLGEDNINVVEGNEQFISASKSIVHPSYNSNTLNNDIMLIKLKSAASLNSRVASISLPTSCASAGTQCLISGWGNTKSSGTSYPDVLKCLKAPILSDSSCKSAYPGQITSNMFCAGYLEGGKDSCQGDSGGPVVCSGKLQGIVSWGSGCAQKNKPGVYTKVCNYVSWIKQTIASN
Procedure: as §1, §2, §3, §4, §5, §6, §7, §8
Bovine pancreatic Trypsin (TPCK-treated) activity was determined by using N-a-Benzoyl-L-Arg-pNA in 50 mM Tris-HCl, pH 8.2, 20 mM CaCl2 (See Somorin, et al., J. Biochem. 85, 157-162 (1979)).
as §9

r-tissue kallikrein = r-tissue kallikrein (Homo sapiens, UniProt P06870); assay: Ki determination, r-tissue kallikrein (DL-Val-Leu-Arg-pNA); details: 50 mM Tris-HCl, pH 7.8, 200 mM NaCl, 0.05% BSA; read-out: Experimentally Determined Ki, Tissue Kallikrein
Procedure: as §1, §2, §3, §4, §5, §6, §7, §8
(§10) I. Human Plasma and r-Tissue Kallikrein
(§11) Human plasma and r-tissue kallikrein activity were determined in 50 mM Tris-HCl, pH 7.8, 200 mM NaCl, 0.05% BSA by using H-D-Prolyl-Phe-Arg-pNA and DL-Val-Leu-Arg-pNA, respectively (See Lottenberg, et al., Meth. Enzymol. 80, 341-361 (1981)).
as §9

Human plasma kallikrein = molecular target: T7, Human plasma kallikrein (Homo sapiens, UniProt P03952); assay: Ki determination, human plasma kallikrein (H-D-Prolyl-Phe-Arg-pNA); details: 50 mM Tris-HCl, pH 7.8, 200 mM NaCl, 0.05% BSA; read-out: Experimentally Determined Ki, Plasma Kallikrein
T7 construct: from tissue; host or cells: human plasma
Procedure: as §1, §2, §3, §4, §5, §6, §7, §8, §10, §11, §9

[4] = molecular target: T8, Bovine Pancreatic Chymotrypsin (Bos taurus, UniProt P00766); assay: Ki determination, bovine pancreatic chymotrypsin (N-Suc-Ala-Ala-Pro-Phe-pNA); details: 100 mM Tris-HCl, pH 7.8, 10 mM CaCl2; read-out: Experimentally Determined Ki, Chymotrypsin
T8 construct: from tissue; host or cells: bovine pancreas
Procedure: as §1, §2, §3, §4, §5, §6, §7, §8
Bovine Pancreatic Chymotrypsin activity was determined by using N-Suc-Ala-Ala-Pro-Phe-pNA in 100 mM Tris-HCl, pH 7.8, 10 mM CaCl2 (See Delmar, et al., J. Biochem. 85, 157-162 (1979)).
as §9

T3 sequence (P00747 581-810 limits assumed): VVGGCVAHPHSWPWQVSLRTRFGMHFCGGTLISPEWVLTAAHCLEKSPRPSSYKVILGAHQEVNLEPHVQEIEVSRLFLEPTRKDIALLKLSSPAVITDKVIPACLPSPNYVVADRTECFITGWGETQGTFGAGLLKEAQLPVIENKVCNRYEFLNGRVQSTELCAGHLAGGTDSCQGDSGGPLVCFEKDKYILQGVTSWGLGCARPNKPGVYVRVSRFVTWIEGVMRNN
T3 sequence (P00747 97-580 partner limits assumed): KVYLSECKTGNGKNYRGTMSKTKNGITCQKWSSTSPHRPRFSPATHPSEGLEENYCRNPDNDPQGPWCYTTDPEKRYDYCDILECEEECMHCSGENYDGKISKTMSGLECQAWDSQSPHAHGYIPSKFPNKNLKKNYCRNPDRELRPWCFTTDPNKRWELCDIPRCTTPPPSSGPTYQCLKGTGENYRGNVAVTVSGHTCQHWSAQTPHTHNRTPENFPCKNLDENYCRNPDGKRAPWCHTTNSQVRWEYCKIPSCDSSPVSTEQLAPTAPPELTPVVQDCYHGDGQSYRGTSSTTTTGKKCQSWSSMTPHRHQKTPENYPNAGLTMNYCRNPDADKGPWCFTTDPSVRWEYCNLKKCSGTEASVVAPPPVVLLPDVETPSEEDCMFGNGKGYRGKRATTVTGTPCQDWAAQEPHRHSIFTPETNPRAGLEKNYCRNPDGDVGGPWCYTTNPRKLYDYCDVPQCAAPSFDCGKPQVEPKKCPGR
T2 sequence (P00742 235-488 limits assumed): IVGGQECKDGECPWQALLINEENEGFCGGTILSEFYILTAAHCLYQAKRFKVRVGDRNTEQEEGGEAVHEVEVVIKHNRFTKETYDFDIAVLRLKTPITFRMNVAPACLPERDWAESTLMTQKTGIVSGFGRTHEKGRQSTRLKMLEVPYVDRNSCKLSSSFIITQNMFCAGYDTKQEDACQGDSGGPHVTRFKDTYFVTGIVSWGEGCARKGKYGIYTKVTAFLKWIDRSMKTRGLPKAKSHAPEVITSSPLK
T2 sequence (P00742 41-179 partner limits assumed): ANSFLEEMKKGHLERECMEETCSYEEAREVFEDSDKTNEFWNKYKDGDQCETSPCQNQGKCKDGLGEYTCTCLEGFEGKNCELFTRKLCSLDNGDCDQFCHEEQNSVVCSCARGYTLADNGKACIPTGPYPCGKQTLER
T7 sequence (P03952 391-638 limits assumed): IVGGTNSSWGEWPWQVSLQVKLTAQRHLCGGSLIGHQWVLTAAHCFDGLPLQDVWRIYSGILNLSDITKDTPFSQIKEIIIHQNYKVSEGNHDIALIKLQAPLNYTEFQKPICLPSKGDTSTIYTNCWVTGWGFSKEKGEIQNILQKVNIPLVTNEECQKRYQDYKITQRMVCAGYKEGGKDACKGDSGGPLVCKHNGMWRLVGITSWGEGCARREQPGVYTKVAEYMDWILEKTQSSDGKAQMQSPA
T7 sequence (P03952 20-390 partner limits assumed): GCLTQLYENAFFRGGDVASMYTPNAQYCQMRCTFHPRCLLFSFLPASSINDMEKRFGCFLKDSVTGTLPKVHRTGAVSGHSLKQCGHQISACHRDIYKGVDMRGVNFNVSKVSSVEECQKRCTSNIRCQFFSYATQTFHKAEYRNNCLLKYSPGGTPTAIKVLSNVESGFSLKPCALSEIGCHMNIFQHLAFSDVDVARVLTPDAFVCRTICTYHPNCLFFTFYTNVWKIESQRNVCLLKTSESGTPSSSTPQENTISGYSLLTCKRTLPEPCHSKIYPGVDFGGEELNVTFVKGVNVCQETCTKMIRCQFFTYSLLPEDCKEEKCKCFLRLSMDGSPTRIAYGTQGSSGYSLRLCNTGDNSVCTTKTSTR
Chain of r-tissue kallikrein (P06870 25-262): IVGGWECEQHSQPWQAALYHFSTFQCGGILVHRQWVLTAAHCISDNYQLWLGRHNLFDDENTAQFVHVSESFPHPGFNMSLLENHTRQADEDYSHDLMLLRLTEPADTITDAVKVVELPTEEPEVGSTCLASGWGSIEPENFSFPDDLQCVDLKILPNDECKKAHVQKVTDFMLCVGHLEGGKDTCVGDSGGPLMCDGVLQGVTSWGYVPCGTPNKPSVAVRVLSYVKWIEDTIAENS

Row | Structure (SMILES) | Ki (Human lung tryptase) [µM] | Ki (Human plasma thrombin) [µM] | Ki (Human plasma factor Xa) [µM] | Ki (Human plasma plasmin) [µM] | Ki [1] [µM] | Ki [2] [µM] | Ki [3] [µM] | Ki (r-tissue kallikrein) [µM] | Ki (Human plasma kallikrein) [µM] | Ki [4] [µM]
1 | N=C(N)c1ccc(S(=O)(=O)NCc2ccc(OCCCCCOc3ccc(CNS(=O)(=O)c4ccc(C(=N)N)cc4)cc3)cc2)cc1 [Example 42, 1,5-Bis-{4-[(4-carbamimidoyl-benzenesulfonylamino)-methyl]-phenoxy}-pentane] | 0.25 | > 100 | 47 | > 100 | > 100 | > 100 | – | – | – | –
2 | N=C(N)c1ccc(S(=O)(=O)NCc2ccc(OCCCCCCOc3ccc(CNS(=O)(=O)c4ccc(C(=N)N)cc4)cc3)cc2)cc1 [Example 44, 1,6-Bis-{4-[(4-carbamimidoyl-benzenesulfonylamino)-methyl]-phenoxy}-hexane] | 3.2 | – | – | – | – | – | 8 | – | – | –
3 | N=C(N)c1ccc(S(=O)(=O)NCc2ccc(OCCCCCCCOc3ccc(CNS(=O)(=O)c4ccc(C(=N)N)cc4)cc3)cc2)cc1 [Example 46, 1,7-Bis-{4-[(4-carbamimidoyl-benzenesulfonylamino)-methyl]-phenoxy}-heptane] | 1.5 | – | – | – | – | – | – | – | – | –
4 | N=C(N)c1ccc(S(=O)(=O)NCc2ccc(OCCCCOc3ccc(CNS(=O)(=O)c4ccc(C(=N)N)cc4)cc3)cc2)cc1 [Example 48, 1,4-Bis-{4-[(4-carbamimidoyl-benzenesulfonylamino)-methyl]-phenoxy}-butane] | 12.5 | – | – | – | – | – | 4.2 | – | – | –
5 | N=C(N)c1ccc(S(=O)(=O)NCc2ccc(OCCOc3ccc(CNS(=O)(=O)c4ccc(C(=N)N)cc4)cc3)cc2)cc1 [Example 52, 1,2-Bis-{4-[(4-carbamimidoyl-benzenesulfonylamino)-methyl]-phenoxy}-ethane] | 1.5 | – | – | – | – | – | – | – | – | –
6 | N=C(N)c1ccc(S(=O)(=O)NCc2cccc(OCCCCCOc3cccc(CNS(=O)(=O)c4ccc(C(=N)N)cc4)c3)c2)cc1 [Example 74, 1,5-Bis-{3-[(4-carbamimidoyl-benzenesulfonylamino)-methyl]-phenoxy}-pentane] | – | > 100 | 40 | 3.7 | > 100 | > 100 | 1.4 | 16 | 9 | > 100
7 | N=C(N)c1cccc(S(=O)(=O)NCc2cccc(OCCCCCOc3cccc(CNS(=O)(=O)c4cccc(C(=N)N)c4)c3)c2)c1 [Example 75, 1,5-Bis-{3[-(3-carbamimidoyl-benzenesulfonylamino)-methyl]-phenoxy}-pentane] | – | > 100 | 6 | > 100 | > 100 | > 100 | 3 | > 100 | 2.9 | > 100
8 | N=C(N)c1ccc2[nH]c(CC(=O)NCc3ccc(CNCCNCc4ccc(CNC(=O)Cc5nc6cc(C(=N)N)ccc6[nH]5)cc4)cc3)nc2c1 [Example 119] | 0.002 | – | – | – | – | – | – | – | – | –
